The target in experiment [1] is T1, Carboxy-terminal domain RNA polymerase II polypeptide A small phosphatase 1 (Homo sapiens, UniProt Q9GZU7).
T1 sequence (Q9GZU7 whole entry): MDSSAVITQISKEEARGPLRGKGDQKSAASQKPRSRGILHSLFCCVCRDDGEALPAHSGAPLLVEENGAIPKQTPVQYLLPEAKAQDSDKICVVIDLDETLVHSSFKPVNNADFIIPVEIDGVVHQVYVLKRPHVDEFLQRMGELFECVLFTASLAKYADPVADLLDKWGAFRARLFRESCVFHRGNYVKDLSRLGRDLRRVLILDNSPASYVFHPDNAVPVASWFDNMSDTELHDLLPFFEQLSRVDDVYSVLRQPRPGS
Put plainly: inhibitors of CTDSP1, concentration-response testing, biochemical assay, absorbance-based, actives from ultra-high-throughput screening (AID 540297). The format is functional.

Another experiment has as its target Nonstructural protein 1 (Influenza A virus, UniProt Q194T2). The format is functional, Influenza A virus (A/California/07/2009(H1N1)).
Experiment [2] has as its target T2, Polyadenylate-binding protein 1 (Homo sapiens, UniProt P11940). Nature of the experiment: PABP1 MLLE–PAM2 interaction inhibitors, dose response, miRNA deadenylation inhibitor project, biochemical, fluorescence polarization, Cy5-PAM2 peptide, secondary (AID 602260). Particulars: read-out: IC50_Mean. Format: functional. (In general: In fluorescence polarisation assays a small probe gives low polarisation when free and higher when bound to something large.)

Experiment [3] addresses T2, Polyadenylate-binding protein 1. Put plainly: PABP1 MLLE–PAM2 binding inhibitor potency, dose response, biochemical, fluorescence polarization, FITC-PAM2 peptide (AID 602259). The format is functional. Particulars: read-out: IC50_Mean.
The target in experiment [4] is FAD-linked sulfhydryl oxidase ALR (Homo sapiens, UniProt P55789). Put plainly: inhibitors of human ALR sulfhydryl oxidase, dose response, biochemical, H2O2 detection, luminescence, cherry-pick (AID 493248).
Experiment [5] addresses T3, RNA-binding protein pos-1 (Caenorhabditis elegans, UniProt G5EF15).
T3 sequence (G5EF15 whole entry): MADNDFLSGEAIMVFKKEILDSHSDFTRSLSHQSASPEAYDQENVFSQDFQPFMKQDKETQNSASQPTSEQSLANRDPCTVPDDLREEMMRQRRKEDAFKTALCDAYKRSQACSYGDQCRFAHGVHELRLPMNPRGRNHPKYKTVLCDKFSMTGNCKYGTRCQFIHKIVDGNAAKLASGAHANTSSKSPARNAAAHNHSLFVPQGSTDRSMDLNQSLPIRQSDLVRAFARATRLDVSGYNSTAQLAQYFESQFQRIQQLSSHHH
Nature of the experiment: inhibitors of POS-1/mex-3 RNA binding, dose response, biochemical, fluorescence polarization (AID 1964).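 Further: purified POS-1 fused to maltose binding protein made in E. coli; potency of compounds blocking POS-1 binding to fluorescent RNA.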

Experiment [6] has as its target T4, Zinc finger protein mex-5 (Caenorhabditis elegans, UniProt Q9XUB2).
T4 sequence (Q9XUB2 whole entry): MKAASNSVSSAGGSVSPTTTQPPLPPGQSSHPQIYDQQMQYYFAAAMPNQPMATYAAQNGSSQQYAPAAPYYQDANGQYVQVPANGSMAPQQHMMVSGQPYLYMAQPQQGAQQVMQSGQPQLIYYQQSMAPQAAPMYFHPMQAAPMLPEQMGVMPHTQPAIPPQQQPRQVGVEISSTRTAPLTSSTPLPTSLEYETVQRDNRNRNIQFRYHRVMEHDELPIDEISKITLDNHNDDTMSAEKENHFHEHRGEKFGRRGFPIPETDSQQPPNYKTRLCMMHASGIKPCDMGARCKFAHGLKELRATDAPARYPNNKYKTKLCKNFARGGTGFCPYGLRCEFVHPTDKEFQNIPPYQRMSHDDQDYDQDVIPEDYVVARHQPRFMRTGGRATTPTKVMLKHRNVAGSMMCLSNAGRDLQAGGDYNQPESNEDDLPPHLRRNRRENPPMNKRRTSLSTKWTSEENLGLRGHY
Nature of the experiment: MEX-5/TCR-2 RNA interaction inhibitors, dose response, biochemical, C. elegans, fluorescence polarization (AID 1960).

Experiment [7] addresses T5, Rac GTPase-activating protein 1 (Homo sapiens, UniProt Q9H0H5).
T5 sequence (Q9H0H5 whole entry): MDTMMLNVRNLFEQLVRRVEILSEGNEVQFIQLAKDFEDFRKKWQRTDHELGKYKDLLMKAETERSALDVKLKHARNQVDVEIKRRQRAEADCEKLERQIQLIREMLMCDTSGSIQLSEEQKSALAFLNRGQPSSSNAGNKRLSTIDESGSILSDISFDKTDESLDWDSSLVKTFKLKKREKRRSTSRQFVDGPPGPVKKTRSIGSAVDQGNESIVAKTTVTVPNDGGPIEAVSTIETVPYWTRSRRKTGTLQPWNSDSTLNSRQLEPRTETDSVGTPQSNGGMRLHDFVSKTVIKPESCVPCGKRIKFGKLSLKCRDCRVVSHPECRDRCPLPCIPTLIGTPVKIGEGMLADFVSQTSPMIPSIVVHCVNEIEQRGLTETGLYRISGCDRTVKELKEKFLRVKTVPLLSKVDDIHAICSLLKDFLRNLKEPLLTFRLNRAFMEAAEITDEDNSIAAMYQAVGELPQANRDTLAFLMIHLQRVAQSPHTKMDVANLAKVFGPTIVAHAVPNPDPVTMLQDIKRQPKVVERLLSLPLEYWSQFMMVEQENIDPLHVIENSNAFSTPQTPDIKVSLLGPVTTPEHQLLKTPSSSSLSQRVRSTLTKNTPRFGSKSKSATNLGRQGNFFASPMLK
Nature of the experiment: MgcRacGAP GTPase-activating activity inhibitors, confirmation, biochemical, ADP Hunter fluorescence, primary and confirmatory (AID 624330). Format: functional.

Experiment [8] can be described thus: inhibitors of intracellular T. cruzi replication, confirmation, NIH3T3 host cells, beta-gal luminescence (AID 2044).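 Further: intracellular parasites grown in NIH/3T3 mouse fibroblasts as host cells; luminescent beta-galactosidase reporter signal from transgenic T. cruzi replicating inside host cells; inhibitors lower the luminescence signal.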 The format is functional, cell-based.
Experiment [9] can be described thus: cytotoxicity toward NIH3T3 fibroblasts, dose response, counter-screen, cell-based, ATP luminescence, mouse fibroblasts (AID 2010).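 Further: cells exposed to compound for about 90 hours before reading.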 Format: functional. A general note: The purpose of a counterscreen is to sort out artefacts and off-target activity.
Experiment [10] in a line: Luminescence Cell-Based Dose Retest to Confirm Inhibitors of Cancer Stem Cells. [Related pubchem assays (depositor defined):AID2717, AID2721]. The format is functional. Particulars: Homo sapiens.
A short description of experiment [11]: inhibitors of SNCA 5'UTR-driven reporter translation, confirmation, H4 neuroglioma cells, luminescence (AID 1988). The format is functional, cell-based.
Another experiment has as its system INS1. Nature of the experiment: beta cell apoptosis inhibitors, cytokine rescue, dose response, luminescence, retest (AID 449756).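 Further: cell death triggered by IL-1 beta plus TNF-alpha plus IFN-gamma mixture; protective hits raise ATP signal compared with cytokine alone wells.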 Format: functional, cell-based. The settings on record: Rattus norvegicus.
A short description of experiment [12]: Luminescence Cell-Based Dose Response HTS to Identify Inhibitors of 5'UTR Stem-Loop Driven Prion Protein mRNA Translation in H4 Neuroglioblastoma Cells. [Related pubchem assays: 1827 (Project Summary), 1813 (Primary HTS)]. Format: functional.
Experiment [13] in a line: inhibitors of firefly luciferase expression or activity, dose response, H4 neuroglioma cells, luminescence (AID 1990). The format is functional, cell-based.

The values that follow come from ChEMBL document CHEMBL1201862, “PubChem BioAssay data set” (2004).

The structures appear in SMILES notation. Activity calls are given as the source filed them.

T2 sequence (P11940 whole entry): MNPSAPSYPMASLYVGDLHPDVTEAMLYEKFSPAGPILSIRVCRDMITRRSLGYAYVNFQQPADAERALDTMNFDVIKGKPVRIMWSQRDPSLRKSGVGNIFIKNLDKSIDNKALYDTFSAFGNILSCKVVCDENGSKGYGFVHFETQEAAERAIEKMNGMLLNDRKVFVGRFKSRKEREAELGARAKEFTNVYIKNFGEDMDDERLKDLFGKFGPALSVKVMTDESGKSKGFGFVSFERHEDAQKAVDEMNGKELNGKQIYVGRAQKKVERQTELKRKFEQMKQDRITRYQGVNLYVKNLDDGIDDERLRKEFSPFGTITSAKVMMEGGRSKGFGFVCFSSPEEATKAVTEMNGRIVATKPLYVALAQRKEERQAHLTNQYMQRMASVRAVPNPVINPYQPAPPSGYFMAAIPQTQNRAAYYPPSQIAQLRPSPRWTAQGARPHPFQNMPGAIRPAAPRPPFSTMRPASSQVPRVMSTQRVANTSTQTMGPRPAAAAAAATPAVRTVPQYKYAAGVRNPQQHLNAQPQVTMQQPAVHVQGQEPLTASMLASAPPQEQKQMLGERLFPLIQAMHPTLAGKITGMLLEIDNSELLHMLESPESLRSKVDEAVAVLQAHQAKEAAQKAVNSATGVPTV
FAD-linked sulfhydryl oxidase ALR, sequence (P55789 whole entry): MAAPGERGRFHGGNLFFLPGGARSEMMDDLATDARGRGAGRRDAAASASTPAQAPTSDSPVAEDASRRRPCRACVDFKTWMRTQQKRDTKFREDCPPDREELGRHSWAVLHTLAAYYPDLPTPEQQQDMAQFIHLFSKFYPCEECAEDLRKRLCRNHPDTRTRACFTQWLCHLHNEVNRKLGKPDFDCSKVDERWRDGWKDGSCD
Nonstructural protein 1, sequence (Q194T2 whole entry): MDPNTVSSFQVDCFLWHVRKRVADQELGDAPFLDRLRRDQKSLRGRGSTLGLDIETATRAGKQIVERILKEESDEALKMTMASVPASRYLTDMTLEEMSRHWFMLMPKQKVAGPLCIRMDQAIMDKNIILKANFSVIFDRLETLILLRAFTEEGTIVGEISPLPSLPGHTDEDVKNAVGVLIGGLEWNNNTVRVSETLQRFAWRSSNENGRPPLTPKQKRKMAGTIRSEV

For the compound `O=C(CN1C(=O)N/C(=C\c2ccccc2OCc2ccc(C(=O)O)cc2)C1=O)Nc1ccc(F)cc1`, the IC50 in experiment [1] was 9.09 µM (active).

On to `c1ccc(-c2cn(C[C@H]3CC[C@H](Cn4cc(-c5ccccn5)nn4)O3)nn2)nc1`, for which the IC50 on Nonstructural protein 1 was 3.19 µM (active). On to `CCCCN=C(S)Nc1ccc(OC)nc1`, for which the IC50 in experiment [2] was > 66 µM (inactive); in [3], 43.7 µM (inactive). With `COc1ccc(N2CCN(C(=O)CCNS(=O)(=O)c3ccccc3)CC2)cc1`, the AC50 in experiment [4] is 8.08 µM (active). For the compound `CCCCCCN1C(=O)NC(=O)/C(=C\NCCCn2ccnc2)C1=O`, the EC50 in experiment [5] is > 300 µM (not active); in experiment [6], > 300 µM (inconclusive). As for `CC(C)[N+](C)(CCC(C(N)=O)(c1ccccc1)c1ccccc1)C(C)C` [ISOPROPAMIDE IODIDE], the IC50 in experiment [1] was 3.27 µM (active). For the compound `CCCCC1=CC2=CC(=O)C(C)(OC(=O)c3ccc(Cl)nc3)C(=O)C2=CO1` (stereo not drawn), the figures for the EC50 in [5] and in experiment [6] were 21.7 µM (active) and 21.6 µM (active), respectively. Consider `O=C(Nc1ccc(Nc2ccccc2)cc1)C1CC1`, for which, in experiment [4], the AC50 is 0.875 µM (active). In addition, the IC50 in experiment [7] is 50.8 µM (active).

Consider `Cc1cc(NC(=O)CSC2=NCCS2)no1`, for which the IC50 in experiment [2] and in [3] was > 66 µM (inactive) in each case. For the compound `Nc1nn(-c2ccccc2)c(N)c1N=Nc1ccccc1F`, at Nonstructural protein 1, the IC50 is > 100 µM (active). In the case of `Cc1ccc(C)n1-c1ccc2c(c1)COC2=O`, the EC50 in [5] and in [6] was > 300 µM (not active) throughout.

Consider `Cn1c(=O)c(-c2cc(O)[nH]n2)c(O)c2ccccc21`, for which the EC50 was > 300 µM (not active) in experiment [5] and 23.3 µM (active) in experiment [6].

With `O=C1NC(c2ccccn2)Nc2sc3c(c21)CCC3` (stereo not drawn), the IC50 at Nonstructural protein 1 is 54.2 µM (active). Consider `Cc1ccc2[nH]c(C(=O)O)c(-c3ccccc3)c2c1`, for which, in experiment [4], the AC50 was 4.49 µM (active).

As for `O=C(COC(=O)c1cc(-c2cccs2)nc2ccccc12)NCc1ccco1`, in [1], the IC50 was 9.73 µM (active). For the compound `NNc1nc2ccc(F)cc2s1`, the AC50 in experiment [4] is 4.94 µM (active). Consider `Cn1c(=O)[nH]c(=O)c2c1nc(Br)n2CCCSc1nc2ccccc2o1`, for which the AC50 in experiment [4] is < 0.005 µM (active). The EC50 in [8] was 1.32 µM (active); in [9] it was 15.8 µM (active). Turning to `CCCC(=O)NC(=S)Nc1cccc(Cl)c1N1CCCC1`, the IC50 in [2] and in experiment [3] was > 66 µM (inactive) throughout. Also, the AC50 in experiment [10] is 4.17 µM (active). In the case of `CCOC(=O)c1nc(Nc2ccc(N3CCC(C)CC3)cc2)c2ccccc2n1`, the IC50 at Nonstructural protein 1 was 26.9 µM (active). As for `O=C(COc1ccc(-n2cnnn2)cc1)Nc1ccccc1Cl`, the IC50 in [1] is 11.4 µM (active). Turning to `CN1C(=O)C(=Cc2ccc(Sc3ccccc3)o2)C(=O)N(C)C1=S`, the EC50 in [5] and in experiment [6] was > 300 µM (not active) throughout. `Cc1cc(C(=O)N/N=C/c2cccc([N+](=O)[O-])c2O)[nH]n1`: the IC50 at Nonstructural protein 1 is 7.33 µM (active). For `COC(=O)c1c(NC(=O)C2C3CCC(C3)C2C(=O)O)sc2c1CCCCC2` (stereo not drawn), the IC50 in experiment [2] and in experiment [3] was > 66 µM (inactive) in each case. Consider `Cc1onc(-c2ccccc2Cl)c1C(=O)NCCn1c(C)cc2ccccc21`, for which, on Nonstructural protein 1, the IC50 is > 100 µM (active). As for `CC(C)c1nnc(NC(=O)CS(=O)(=O)Cc2ccccc2)s1`, the IC50 in experiment [2] and in experiment [3] was > 66 µM (inactive) each time.

Consider `COc1ccccc1C(=O)C1CCCN(C(=O)c2cccnc2SC)C1` (stereo not drawn), for which the EC50 in experiment [5] and in experiment [6] was > 300 µM (not active) in each case. On to `CN(CC(=O)Nc1cccc2ccccc12)C(=O)c1ccc(NC(=O)CC#N)cc1`, for which the AC50 in [4] is 6.29 µM (active). Regarding `O=C(O)C1CCCN1c1nc(Cl)ccc1[N+](=O)[O-]` (stereo not drawn), the IC50 in [2] and in experiment [3] was > 66 µM (inactive) each time. In the case of `COc1ccc(OC)c(C(=O)c2coc3ccc(O)c(CN4CCOCC4)c23)c1`, the EC50 in experiment [5] and in experiment [6] was > 300 µM (not active) in each case. `Cc1nc(C(F)(F)F)c(C(=O)NN=C(N)c2ccccn2)s1`: the EC50 in experiment [11] was > 120 µM (not active); in experiment [12], > 120 µM (not active); in experiment [13], 11.5 µM (active). The AC50 in the experiment with INS1 is 5.45 µM (active). The IC50 at Nonstructural protein 1 was 8.03 µM (active).

As for `O=C(CN1CCN(c2ccc(Cl)cc2)CC1)N1CCCC1`, in experiment [4], the AC50 was 0.657 µM (active). Take `O=C(CSc1nnc(CNC(=O)c2c(F)cccc2F)o1)NCc1ccco1`: the IC50 in experiment [1] is 14 µM (active). Consider `CCc1c(O)n(-c2ccccc2C)c(SCC(=O)Nc2ccccc2OC)nc1=O`, for which the IC50 in [2] and in [3] was > 66 µM (inactive) in each case. With `COc1ccc(NS(=O)(=O)c2ccc(NC(=S)NC(=O)c3cccc(F)c3)cc2)nn1`, the IC50 in experiment [2] and in experiment [3] was > 66 µM (inactive) in each case. As to `COc1ccc(C(=O)NCC(c2cccnc2)N2CCN(c3ccc(F)cc3)CC2)cc1OC` (stereo not drawn), in experiment [4], the AC50 is < 0.005 µM (active).

As a reminder, the AC50 is the concentration at which the activity in the assay is half-maximal. For orientation: EC50 means the concentration that produces a half-maximal response.
